Data from patent publication US20180071280A1, “MODULATORS OF CELL DEATH PROCESSES” (URIFER LTD., priority 2015, published 2018).
Where a name gives a salt, the structure may show the parent alone.

How the values were obtained:
[1] = target: CSF1R (Colony stimulating factor 1 receptor-FMS) (Homo sapiens, UniProt P07333); assay: Kinase panel assay, CSF1R; assay type: biochemical; settings: above threshold
Method: (§1) Kinase panel assays were performed using the FRET-based Z′-LYTE, Lantha Screen and Adapta enzymatic kinase assay systems (Life Technologies, Carlsbad, Calif.), which were carried out using the SelectScreen Kinase Profiling Service (Life Technologies). The standard reaction contained 2 μM peptide substrate, ATP at the optimal assay concentration, 50 mM HEPES (pH 7.5), 0.01% Brij-35, 10 mM MgCl2, 1 mM EGTA, and the tested kinase. Each kinase was checked for its activity in duplicate data points (n=2) and was assayed following the detailed procedures outlined in the SelectScreen service. Percent inhibition or ATP displacement (For Lantha screen) represent a ratio of phosphorylated/ATP bound product formed in the presence of the compound compared with phosphorylated/ATP bound product formed in reactions containing 1% DMSO.
(§2) Kinome technique was used for monitoring phosphorylation events and phosphorylation targets of 0260-Fer interaction, using peptide arrays for human targets and phosphorylation-specific antibodies. Construction of peptide arrays relied on information from phosphorylation databases. The following proteins were determined as significant above the threshold of 40% kinase activity inhibition or ATP displacement to the Kinase domain site.

[2] = system: CC cells; assay: Apoptotic markers in treated CC cells (WB, ICC); assay type: cell-based, human
Method: WB analyses were carried out as previously described before. In brief, cells were lysed in RIPA buffer mixed with protease inhibitors and separated on SDS-PAGE gel, transferred to PVDF membrane treated with 5% skim milk to exclude non-specific background and incubated with a primary antibody over-night. The membrane was incubated for 1 h with a secondary antibody conjugated to Horseradish Peroxidase (HRP). The protein-antibody complex was visualized using the SuperSignal West Pico Chemiluminescent Substrate (Thermo scientific, USA).
Cells were fixed with 4% paraformaldehyde (30 min) and incubated with Permeabilization Solution containing 0.1% Triton X-100 (Sigma-Aldrich, Israel) in PBS at room temperature for 1 h. Nonspecific binding was blocked with PBS containing 10% fetal bovine serum for 1 h at room temperature. Cells were incubated with specific antibodies diluted 1:100 overnight at 4° C. […] Bound primary antibodies were detected by Alexa Fluor® 488 goat anti-mouse IgG antibody or Alexa Fluor® 594 goat anti-rabbit IgG antibody (Molecular Probes, Invitrogen, U.K.). […] Nonspecific staining, as determined by binding to the secondary antibody only, was negligible. The immunostained slides were examined under the fluorescence microscope AxioimagerZ1 (Zeiss, Germany) or confocal fluorescence microscope (Olympus-FV1000).

[3] = system: su.86.86 (pancreatic cancer cells derived from metastatic site-liver); assay: Cytotoxicity dose response in su.86.86 cells; assay type: cell-based, human; settings: 24 h, 48 h, 72 h
Method: Cell lines (HCT116, ht29, Rko, Hep3B, SW48, SW620, MDA-MB-231, PANC-1, su.86.86, Hfb) were obtained from the American Type Culture Collection (ATCC). Cell type authentication was carried out by microscope and DNA profiles using short tandem repeat analysis. Cells were grown in Minimum Essential Medium (MEM) containing 10% heat-inactivated Fetal Bovine Serum (FBS) or in Dulbecco's Modified Eagle's Medium (DMEM) containing 10% FBS, where specified, at 37° C. with 5% CO2. In general, the in-vitro experiments were carried out with 2. μM 0260 added into the growth medium. Dose response experiments included increasing 0260 concentrations. Cell death levels were determined using the MultiTox-Fluor Multiplex Cytotoxicity Assay (G9201, Promega, USA). In brief, 10,000 cells were seeded in black bottom 96 wells plate and were allowed to attach to the plate bottom for 16 h before the administration of various 0260 concentration in each well. Cell death levels were determined according to the manufacturer's protocol.
Cells death level was determined using the MultiTox-Fluor Multiplex Cytotoxicity Assay (G9201, Promega, USA) according to the manufacturer's protocol.

[4] = system: Hfb cells; assay: Glycolysis rate (secreted lactate) in Hfb cells; assay type: cell-based, human; settings: low or high glucose
Method: Cells were grown in MEM containing 1 gr/lit glucose or in DMEM with 4.5 gr/lit glucose. Secreted lactate levels were determined using Lactate Colorimetric Assay Kit II according to the manufacturer's protocol (Biovision, USA).

[5] = system: mice sperm cells; assay: Sperm cell motility assay (CASA); assay type: cell-based; settings: 2 μM
Method: For isolation of spermatogenic cells, mice testes were removed from out-bred (ICR) mice and digested in Isolation Medium (DMEM with 2 mM glutamine, 1.5 mM sodium pyruvate, 10% fetal calf serum, 25 μg/ml ampicillin and 1× non-essential amino acids) with added 2 mg/ml collagenase (Sigma-Aldrich) for 5 min at 37° C., and washed twice. Extracellular DNA and proteins were removed with 1 unit/ml DNAse and 0.3 ml 0.5% trypsin at 37° C. for 5 min. Cells were filtered through a nylon mesh with 50 μm pores and incubated in Isolation Medium with 0260 or control for 24 h, and examined under the microscope. Mouse mature caudal spermatozoa were obtained by dissecting the cauda epididymis of male ICR mice and puncturing them in a dish containing 3 ml PBS to enable sperm release out of the epididymal tissue. The sperm suspension was filtered through a nylon mesh with 50 μm pores, centrifuged at 1000×g for 5 min and re-suspended in a buffer compatible with the experimental procedure.
Sperm cell motility was evaluated using the Computer-Aided Sperm Analysis (CASA). Samples (5 μl) were placed in standard count four chamber slide (Leja, Nieuw-Vennet, Netherlands) and analyzed by CASA device with IVOS software (version 12, Hamilton-Thorne Biosciences), acquiring up to ten sequels, 10 s long, for each sample, using parameters identifying mouse sperm motility. The proportion of hyper-activated ([…]) spermatozoa in each sample was determined using the SORT function of the CASA instrument. HAM was defined by curvilinear velocity (VCL)>90 μm/s, linearity (LIN) b20% and an amplitude of lateral head (ALH)>7 μm.

[6] = target: DAPK1 (Death-associated protein kinase 1) (Homo sapiens, UniProt P53355); assay: Kinase panel assay, DAPK1; assay type: biochemical; settings: above threshold
Method: as §1, §2

Sequence of DAPK1 (Death-associated protein kinase 1) (P53355 whole entry): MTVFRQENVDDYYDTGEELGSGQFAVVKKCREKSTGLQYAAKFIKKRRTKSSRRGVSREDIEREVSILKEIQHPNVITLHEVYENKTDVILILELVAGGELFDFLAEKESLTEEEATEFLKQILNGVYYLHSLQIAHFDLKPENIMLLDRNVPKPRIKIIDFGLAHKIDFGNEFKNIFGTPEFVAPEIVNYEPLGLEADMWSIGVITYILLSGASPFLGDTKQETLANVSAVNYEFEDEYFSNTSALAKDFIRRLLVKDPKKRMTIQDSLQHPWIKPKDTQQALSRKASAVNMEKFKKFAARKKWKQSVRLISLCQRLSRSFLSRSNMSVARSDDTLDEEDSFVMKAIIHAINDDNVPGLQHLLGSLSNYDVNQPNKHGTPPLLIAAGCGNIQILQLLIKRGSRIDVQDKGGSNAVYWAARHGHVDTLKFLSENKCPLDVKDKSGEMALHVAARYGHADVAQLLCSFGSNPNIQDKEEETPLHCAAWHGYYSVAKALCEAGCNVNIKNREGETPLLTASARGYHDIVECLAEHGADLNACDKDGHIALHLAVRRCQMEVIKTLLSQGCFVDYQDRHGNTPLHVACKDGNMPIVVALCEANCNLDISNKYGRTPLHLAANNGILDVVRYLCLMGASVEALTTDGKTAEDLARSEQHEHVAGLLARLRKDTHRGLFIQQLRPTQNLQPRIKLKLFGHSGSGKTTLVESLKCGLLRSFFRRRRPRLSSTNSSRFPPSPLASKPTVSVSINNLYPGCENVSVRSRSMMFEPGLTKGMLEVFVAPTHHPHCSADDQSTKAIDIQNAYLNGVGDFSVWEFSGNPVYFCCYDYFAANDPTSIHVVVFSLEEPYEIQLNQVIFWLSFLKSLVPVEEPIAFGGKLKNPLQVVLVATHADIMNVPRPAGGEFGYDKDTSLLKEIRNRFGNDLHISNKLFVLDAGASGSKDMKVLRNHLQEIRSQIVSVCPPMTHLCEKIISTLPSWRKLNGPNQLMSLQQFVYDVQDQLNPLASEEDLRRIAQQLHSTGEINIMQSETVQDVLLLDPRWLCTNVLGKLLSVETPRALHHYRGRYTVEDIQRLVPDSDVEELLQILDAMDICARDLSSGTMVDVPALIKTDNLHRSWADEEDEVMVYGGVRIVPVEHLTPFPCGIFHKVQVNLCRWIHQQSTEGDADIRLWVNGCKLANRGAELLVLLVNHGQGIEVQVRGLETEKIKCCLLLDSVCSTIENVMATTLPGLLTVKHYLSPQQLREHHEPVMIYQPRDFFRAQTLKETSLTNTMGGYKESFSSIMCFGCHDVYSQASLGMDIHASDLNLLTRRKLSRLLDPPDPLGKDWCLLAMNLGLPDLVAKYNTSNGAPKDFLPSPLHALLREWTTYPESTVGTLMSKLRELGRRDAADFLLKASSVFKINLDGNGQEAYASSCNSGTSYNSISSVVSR
Sequence of CSF1R (Colony stimulating factor 1 receptor-FMS) (P07333 20-972): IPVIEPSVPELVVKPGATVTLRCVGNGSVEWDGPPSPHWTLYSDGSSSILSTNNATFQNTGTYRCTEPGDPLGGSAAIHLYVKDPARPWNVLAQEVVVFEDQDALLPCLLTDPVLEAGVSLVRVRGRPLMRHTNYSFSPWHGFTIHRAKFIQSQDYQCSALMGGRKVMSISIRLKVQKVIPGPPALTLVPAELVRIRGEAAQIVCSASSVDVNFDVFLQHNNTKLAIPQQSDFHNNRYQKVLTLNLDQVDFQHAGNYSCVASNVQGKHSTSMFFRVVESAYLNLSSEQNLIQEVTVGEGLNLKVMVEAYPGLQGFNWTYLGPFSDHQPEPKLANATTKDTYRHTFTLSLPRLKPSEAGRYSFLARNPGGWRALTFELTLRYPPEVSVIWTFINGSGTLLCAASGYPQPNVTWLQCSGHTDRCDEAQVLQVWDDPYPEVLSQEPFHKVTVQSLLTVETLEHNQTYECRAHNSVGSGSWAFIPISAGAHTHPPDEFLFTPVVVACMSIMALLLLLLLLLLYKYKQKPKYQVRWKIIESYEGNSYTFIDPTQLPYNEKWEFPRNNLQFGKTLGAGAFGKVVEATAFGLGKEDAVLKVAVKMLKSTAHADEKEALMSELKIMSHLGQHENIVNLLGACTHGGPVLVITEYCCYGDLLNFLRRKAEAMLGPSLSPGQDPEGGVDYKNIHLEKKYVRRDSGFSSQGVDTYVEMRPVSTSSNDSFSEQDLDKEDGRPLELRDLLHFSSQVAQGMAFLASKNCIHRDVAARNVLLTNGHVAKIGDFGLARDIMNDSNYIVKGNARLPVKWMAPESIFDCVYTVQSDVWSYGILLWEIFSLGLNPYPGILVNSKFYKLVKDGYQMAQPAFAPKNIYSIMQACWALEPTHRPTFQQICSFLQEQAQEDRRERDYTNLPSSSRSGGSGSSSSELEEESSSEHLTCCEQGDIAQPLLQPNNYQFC

CC(C)c1ccc(-c2cn3nc(N4CCC(CN5CCN(C)CC5)CC4)sc3n2)cc1 [compound 0260, tartarate salt of 6-(4-isopropyl-phenyl)-2-{4-[(4-methyl-piperazin-1-yl)methyl]piperidin-1-yl}-imidazo [2,1-b][1,3,4]thiadiazole]
kinase activity inhibition or ATP displacement [1]: > 40%
apoptotic markers (cleaved caspase 3, cleaved PARP-1, AIF translocation) [2]: not observed
sensitivity of Su.86.86 relative to PANC-1 cells [3]: more sensitive
elevation in the glycolytic rate [4]: not observed
percentage of sperm cells exhibiting progressive motility ([5]; 5 min): significantly decreased
progressive motility ([5]; 30 min): practically reduced to zero
total motility ([5]; 30 min): practically reduced to zero
kinase activity inhibition or ATP displacement [6]: > 40%
